From US8648092B2, “Imidazo[1,2-a]pyridine derivatives: preparation and pharmaceutical applications” (MEI Pharma, priority 2005, dated 2014)

Experiments:
Colo205 cells = assay: Cell-based proliferation assay for determination of GI50 values (CyQUANT); parameters: species or system human
Experimental: Cell-Based Proliferation Assay for Determination of GI50 Values
Human cancer cell lines (e.g. Colo205) were obtained from ATCC. Colo205 cells were cultivated in RPMI 1640 containing 2 mM L-Glutamine, 5% FBS, 1.0 mM Na Pyruvate. Colo205 cells were seeded in 96-wells plate at 5000 cells per well. The plates were incubated at 37° C., 5% CO2, for 24 h. Cells were treated with compounds at various concentrations for 96 h. Cell growth was then monitored using CyQUANT® cell proliferation assay (Invitrogen Pte Ltd). Dose response curves were plotted to determine GI50 values for the compounds using XL-fit (ID Business Solution, Emeryville, Calif.). GI50 is defined as the concentration of compound required for 50% inhibition of cell growth.
The cellular or growth inhibition activity results of representative compounds are shown in Table 4 below (unit in the table is micromolar).

[1] = target: HDAC1 enzyme (recombinant GST-HDAC1) (Homo sapiens (Human), UniProt Q13547); assay: In vitro HDAC assay for determination of IC50 values (BIOMOL fluorescent-based HDAC activity assay); assay type: biochemical; settings: Flur de lys substrate, 2 h room temperature, read-out: IC50 (HDAC 1)
Experimental: Biological Testing and Enzyme Assays Recombinant GST-HDAC1 Protein Expression and Purification
Human cDNA library was prepared using cultured SW620 cells. Amplification of human HDAC1 coding region from this cDNA library was cloned separately into the baculovirus expression pDEST20 vector (GATEWAY Cloning Technology, Invitrogen Pte Ltd). The pDEST20-HDAC1 construct was confirmed by DNA sequencing. Recombinant baculovirus was prepared using the Bac-To-Bac method following the manufacturer's instruction (Invitrogen Pte Ltd).
Expression of GST-HDAC1 was done by infecting SF9 cells (Invitrogen Pte Ltd) with pDEST20-HDAC1 baculovirus at MOI=1 for 48 h. Soluble cell lysate was incubated with pre-equilibrated Glutathione Sepharose 4B beads (Amersham) at 4° C. for 2 h. The beads were washed with PBS buffer for 3 times. The GST-HDAC1 protein was eluted by elution buffer containing 50 mM Tris, pH8.0, 150 mM NaCl, 1% Triton X-100 and 10 mM or 20 mM reduced Glutathione. The purified GST-HDAC1 protein was dialyzed with HDAC storage buffer containing 10 mM Tris, pH7.5, 100 mM NaCl and 3 mM MgCl2. 20% Glycerol was added to purified GST-HDAC1 protein before storage at −80° C.
In Vitro HDAC Assay for Determination of IC50 Values
The assay has been carried out in 96 well format and the BIOMOL fluorescent-based HDAC activity assay has been applied. […] Flur de lys Developer was added and the reaction was incubated for 10 min. Briefly, deacetylation of the substrate sensitizes it to the developer, which then generates a fluorophore. The fluorophore is excited with 360 nm light and the emitted light (460 nm) is detected on a fluorometric plate reader (Tecan Ultra Microplate detection system, Tecan Group Ltd.).
The analytical software, Prism 4.0 (GraphPad Software Inc) has been used to generate IC50 from a series of data.

[2] = Homo sapiens, COLO 205, 96 h treatment

HDAC1 enzyme (recombinant GST-HDAC1), sequence (Q13547 whole entry): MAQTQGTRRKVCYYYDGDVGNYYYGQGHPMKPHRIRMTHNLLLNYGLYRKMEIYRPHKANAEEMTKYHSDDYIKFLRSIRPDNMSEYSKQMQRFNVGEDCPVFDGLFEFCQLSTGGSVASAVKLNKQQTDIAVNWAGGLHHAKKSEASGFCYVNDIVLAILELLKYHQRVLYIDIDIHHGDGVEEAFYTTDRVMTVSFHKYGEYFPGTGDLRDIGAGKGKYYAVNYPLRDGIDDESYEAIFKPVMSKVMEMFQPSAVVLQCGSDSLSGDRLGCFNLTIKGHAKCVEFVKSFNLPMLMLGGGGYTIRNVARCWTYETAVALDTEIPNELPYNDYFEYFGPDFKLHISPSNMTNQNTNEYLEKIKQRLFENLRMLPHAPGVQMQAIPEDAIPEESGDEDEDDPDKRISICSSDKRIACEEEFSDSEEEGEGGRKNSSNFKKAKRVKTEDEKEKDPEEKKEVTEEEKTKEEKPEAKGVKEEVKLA

| Compound | GI50 (Colo205 cells; [2]) [nM] | IC50 [1] [nM] | GI50 (Colo205 cells; 96 h treatment) [nM] |
| --- | --- | --- | --- |
| COCCNc1c(CCc2ccccc2)nc2ccc(/C=C/C(=O)NO)cn12 [Compound 5, N-Hydroxy-3-[3-(2-methoxy-ethylamino)-2-phenethyl-imidazo[1,2-a]pyridin-6-yl]-acrylamide] | 27000 | 350 |  |
| CC(C)Nc1c(C(C)C)nc2ccc(/C=C/C(=O)NO)cn12 [Compound 14, N-Hydroxy-3-(2-isopropyl-3-isopropylamino-imidazo[1,2-a]pyridin-6-yl)-acrylamide] | 9200 | 2700 |  |
| CCCCc1nc2cc(/C=C/C(=O)NO)ccn2c1CN(C)CCCC [Compound 76, 3-{2-Butyl-3-[(butyl-methyl-amino)-methyl]-imidazo[1,2-a]pyridin-7-yl}-N-hydroxy-acrylamide] | 170 | 70 |  |
| CCCCCCc1nc2cc(/C=C/C(=O)NO)ccn2c1NCCC(=O)NCCCC [Compound 21, 3-[3-(2-Butylcarbamoyl-ethylamino)-2-hexyl-imidazo[1,2-a]pyridin-7-yl]-N-hydroxy-acrylamide] | 13000 | 130 |  |
| CCCN(Cc1c(-c2ccccc2)nc2cc(/C=C/C(=O)NO)ccn12)CC1CC1 [Compound 53, 3-{3-[(Cyclopropylmethyl-propyl-amino)-methyl]-2-phenyl-imidazo[1,2a]pyridin-7-yl}-N-hydroxy-acrylamide] | 2900 | 600 |  |
| CC(C)CCc1nc2cc(/C=C/C(=O)NO)ccn2c1CNC(C)(C)C [Compound 140, 3-[3-(tert-Butylamino-methyl)-2-(3-methyl-butyl)-imidazo[1,2-a]pyridin-7-yl]-N-hydroxy-acrylamide] | 100 | 20 |  |
| CCCCCCc1nc2cc(/C=C/C(=O)NO)ccn2c1NCCC(=O)NCCSC [Compound 25, 3-{2-Hexyl-3-[2-(2-methylsulfanyl-ethylcarbamoyl)-ethylamino]-imidazo[1,2-a]pyridin-7-yl}-N-hydroxy-acrylamide] | 2100 | 73 |  |
| CCN1CCN(Cc2c(-c3ccccc3)nc3cc(/C=C/C(=O)NO)ccn23)CC1 [Compound 57, 3-[3-(4-Ethyl-piperazin-1-ylmethyl)-2-phenyl-imidazo[1,2-a]pyridin-7-yl]-N-hydroxy-acrylamide] | 14000 | 4600 |  |
| O=C(/C=C/c1ccc2nc(CCc3ccccc3)c(NC3CCCCC3)n2c1)NO [Compound 6, 3-(3-Cyclohexylamino-2-phenethyl-imidazo[1,2-a]pyridin-6-yl)-N-hydroxy-acrylamide] | 42000 | 1400 |  |
| O=C(/C=C/c1ccn2cc(-c3ccccc3)nc2c1)NO [Compound 34, N-Hydroxy-3-(2-phenyl-imidazo[1,2-a]pyridin-7-yl)-acrylamide] | 42000 | 870 |  |

Other lines, results leading:

| GI50 (Colo205 cells; [2]) [nM] | IC50 [1] [nM] | GI50 (Colo205 cells; 96 h treatment) [nM] | Compound |
| --- | --- | --- | --- |
| > 100000 | > 10000 |  | CC(C)(C)NCc1c(-c2ccccc2)nc2cc(C(=O)NO)ccn12 [Compound 70, 3-(tert-Butylamino-methyl)-2-phenyl-imidazo[1,2-a]pyridine-7-carboxylic acid hydroxyamide] |
| 4700 | 1000 |  | CCCN(Cc1c(-c2ccccc2)nc2cc(/C=C/C(=O)NO)ccn12)C(C)CC (stereo not shown) [Compound 54, 3-{3-[(sec-Butyl-propyl-amino)-methyl]-2-phenyl-imidazo[1,2-a]pyridin-7-yl}-N-hydroxy-acrylamide] |
| 160 | 50 |  | CCN(CCC(C)(C)C)Cc1c(C)nc2cc(/C=C/C(=O)NO)ccn12 [Compound 125, 3-(3-{[(3,3-Dimethyl-butyl)-ethyl-amino]-methyl}-2-methyl-imidazo[1,2-a]pyridin-7-yl)-N-hydroxyacrylamide] |
|  | 80 | 490 | CCCCc1nc2cc(/C=C/C(=O)NO)ccn2c1CN(CC)CC(C)CCC (stereo not shown) [Compound 116, 3-(2-Butyl-3-{[ethyl-(2-methyl-pentyl)-amino]-methyl}-imidazo[1,2-a]pyridin-7-yl)-N-hydroxy-acrylamide] |
